How the values were obtained:
Tau204-2163P = biological target: T1, Tau204-2163P (Homo sapiens, UniProt P10636); experiment: Fluorescence titration of BODIPY-Zn(Dpa) with Tau204-2163P; assay type: binding
T1 construct: made in house; host or cells: chemical solid-phase synthesis
Protocol: The phosphorylated peptide-recognizing ability of BODIPY-Zn(Dpa) compound 9 (hereinafter referred to as BODIPY-Zn(Dpa)) was evaluated by measuring fluorescence spectra. Measurement was performed under the following conditions: [BODIPY-Zn(Dpa)]=5 μM; pH 7.2; 50 mM HEPES buffer; and 25° C. The excitation wavelength was λex=530 nm. […] When Tau2P was excessively added, this change reached saturation. The […] calculated from the fluorescence changes was 2.75×10^5 M^−1.
Fluorescence changes when peptide Tau204-2163P or Tau204-2162P used in Example 1 was added dropwise were measured to calculate the affinity (association constant).

GSK-3β = experiment: Kinase assay using BODIPY-Zn(Dpa), Tau1P and GSK-3β; assay type: biochemical
Protocol: A kinase assay was performed using Tau1P, a phosphorylated partial sequence peptide of a tau protein, BODIPY-Zn(Dpa) and GSK-3β, which phosphorylates the 231st threonine. The experiment conditions were as follows: 20 μM Tau1P, 20 μM BODIPY-Zn(Dpa), 100 μM ATP, 2 μg of BSA, 50 mM HEPES, 10 mM MgCl2, 10 mM DTT, 2 μM EDTA; pH 7.2; 30° C.; and an excitation wavelength of 540 nm. […] This is a result of phosphorylation of the 231st threonine in Tau1P by GSK-3β, recognition of the phosphorylation by BODIPY-Zn(Dpa) and the resulting interaction.

[1] = test system: phosphorylated tau protein; experiment: Fluorescence staining of AD-affected human brain hippocampal tissue sections, costaining with tau antibodies; conditions: 10 μM probe
Protocol: (§1) To investigate whether an excessively phosphorylated tau protein in brain tissues can be detected, a fluorescence staining experiment of hippocampal tissue sections from a human brain affected by Alzheimer (AD) and a normal brain was performed using BODIPY-Zn(Dpa). Specifically, hippocampal tissue sections from the AD-affected human brain or the normal brain were deparaffinized (xylene immersion for 5 min was repeated three times, then each section was immersed in 100%, 90%, 80% and 70% aqueous ethanol solution in stages [for 2 min each], and finally washed twice with water for 5 min), lipofuscin was removed (washed twice with PBS for 2 min, immersed in 0.25% by weight permanganate potassium/PBS for 30 min, washed twice with PBS for 2 min, immersed in 1% by weight oxalic acid and 1% by weight potassium pyrosulfate/PBS for 6 min and finally washed twice with PBS for 2 min), trypsin treatment was performed (washed twice with PBS-Tween at room temperature for 2 min and 0.05% Trypsin/PBS at 37° C. for 15 min), and finally washed twice with PBS-Tween at room temperature for 5 min, and costaining was performed using an antibody and BODIPY-Zn(Dpa). First, blocking was performed with 10% goat serum (37° C., 30 min) to remove 10% goat serum, then a primary antibody was added, and a reaction was performed at 4° C. for 17 to 19 h. […]

[2] = test system: hippocampal tissues from the normal human brain; experiment: Fluorescence staining of normal human brain hippocampal tissue sections
Protocol: as §1

[3] = test system: tau proteins on a tissue section; experiment: Fluorescence staining of AD human hippocampal tissue sections treated with dephosphorylating enzyme (PP2A); conditions: PP2A 0.5 units/50 μL, 37° C., 24 h
Protocol: To investigate whether an excessively phosphorylated tau protein in brain tissues can be detected, a fluorescence staining experiment of hippocampal tissue sections from a human brain affected by Alzheimer (AD) and a normal brain was performed using BODIPY-Zn(Dpa). […]
Before staining, the sections were treated with a dephosphorylating enzyme (PP2A: 0.5 units/50 μL, 37° C., 24 h), and a fluorescence staining experiment for hippocampal tissue sections was performed according to the procedure in Example 2(12). […] Fluorescence dots observed in the BODIPY-Zn(Dpa) staining and the AT8 staining disappeared after dephosphorylating tau proteins on tissues with PP2A. […] The fluorescence dots in the BODIPY-Zn(Dpa) staining were detected depending on the phosphorylation of tau proteins.

[4] = Delivery of BODIPY-Zn(Dpa) into brain after intravenous administration; assay type: in vivo, ICR mouse; conditions: i.v. 1 mg/kg; for percent of the dose per gram of the mouse brain: rounded; for content in the brain / content in the brain based on the dose: mouse
Protocol: BODIPY-Zn(Dpa) was intravenously administered to an ICR mouse (male, 7 weeks old) to measure the delivery thereof into the brain in vivo. Specifically, BODIPY-Zn(Dpa) (400 μL of 50 μM HBS solution) was injected from the caudal vein at a dose of 1 mg/kg, and the brain was collected at 2 or 30 min after administration. The collected brain (424 to 488 mg) was homogenized in 3 mL of an HBS solution using a spatula and homogenized by ultrasonic irradiation. BODIPY-Zn(Dpa) contained in the brain was quantified by reverse-phase HPLC to obtain the content of BODIPY-Zn(Dpa) in the brain based on the dose (% ID/g: % injected dose per gram of the brain). Fluorescence from the compound (excitation, 520 nm; fluorescence, 545 nm) was utilized for detection by HPLC.

[5] = biological target: T2, phosphorylated tau aggregate (Homo sapiens, UniProt P10636); experiment: Fluorescence titration of phosphorylated tau aggregate against 100 nM BODIPY-Zn(Dpa); assay type: binding; conditions: compared with tau aggregate and amyloid β aggregate
T2 construct: made in house; host or cells: Escherichia coli
T2 sequence (P10636 1-441 isoform P10636-8): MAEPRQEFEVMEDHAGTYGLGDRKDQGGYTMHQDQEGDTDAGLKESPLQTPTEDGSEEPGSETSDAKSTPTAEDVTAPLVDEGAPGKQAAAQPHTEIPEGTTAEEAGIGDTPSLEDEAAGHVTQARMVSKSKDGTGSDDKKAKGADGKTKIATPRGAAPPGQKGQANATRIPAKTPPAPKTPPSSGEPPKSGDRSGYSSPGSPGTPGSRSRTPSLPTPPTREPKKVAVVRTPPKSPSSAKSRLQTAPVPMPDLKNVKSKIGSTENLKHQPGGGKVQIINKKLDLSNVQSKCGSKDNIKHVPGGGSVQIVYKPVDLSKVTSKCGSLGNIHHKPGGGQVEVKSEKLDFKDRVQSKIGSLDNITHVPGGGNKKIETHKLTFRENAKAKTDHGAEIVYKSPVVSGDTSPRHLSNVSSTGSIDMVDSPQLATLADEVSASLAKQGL
Protocol: The ranges of concentrations at which a phosphorylated tau aggregate, a tau aggregate, and an amyloid β aggregate interact with BODIPY-Zn(Dpa) were examined by titration. Titration was performed in the range of tau concentrations of 0 to 320 nM (0 to 14 μg/mL) against 100 nM of BODIPY-Zn(Dpa). Using a solvent obtained by adding 10% DMSO and 10 μM Zn(NO3)2 to HBS (10 mM HEPES (pH 7.4), 150 mM NaCl), the solution was incubated at 37° C. for 60 min, and fluorescence was measured (excitation wavelength, 490 nm; fluorescence wavelength, 545 nm).

Q: With `CC1=C(c2ccc(CN(C)Cc3ccccn3)nc2)C(C)=[N+]2C1=C(c1cc(OCCOCCOCCO)cc(OCCOCCOCCO)c1)c1c(C)c(-c3ccc(CN(C)Cc4ccccn4)nc3)c(C)n1[B-]2(F)F.O=[N+]([O-])[O-].O=[N+]([O-])[O-].O=[N+]([O-])[O-].O=[N+]([O-])[O-].[Zn+2].[Zn+2]` [BODIPY-Zn(Dpa)] as the compound, how does the Association constant (Tau204-2163P; Tau204-216 3P (i, i+4, i+6)) read?
A: The Association constant was 230000 M⁻¹.

Q: And the “I/I0 - 1 at saturation” value (Tau204-2163P; Tau204-216 3P (i, i+4, i+6))?
A: The value was 0.25.

Q: What about the “detection of peptide by fluorescence change” value (Tau204-2163P; Tau204-2163P) of the same compound?
A: The value was “could be detected”.

Q: And the “fluorescence intensity change with time” value (GSK-3β; 20 μM Tau1P, 20 μM BODIPY-Zn(Dpa), 100 μM ATP, 30° C.)?
A: Its value is “increase in fluorescence intensity with time was confirmed”.

Q: And the “kinase concentration dependence of fluorescence intensity” value (GSK-3β; GSK-3β concentration varied)?
A: Its value is “concentration-dependence of GSK-3β was observed”.

Q: What about the “coexistence of fluorescence with Tau-2 and AT8 antibody staining” value [1] of the same compound?
A: Its value is “coexisted”.

Q: What about the fluorescence in tissue [2] of the same compound?
A: The fluorescence in tissue was “is not observed”.

Q: And the “fluorescence dots in staining image after PP2A treatment” value [3]?
A: The value was “disappeared”.

Q: And the “fluorescence intensity after PP2A treatment compared with before” value [3]?
A: Its value is “significantly decreased”.

Q: And the “percent of the dose per gram of the mouse brain” value ([4]; 2 min after administration)?
A: Its value is 0.5%.

Q: And the “percent of the dose per gram of the mouse brain” value ([4]; 30 min after administration)?
A: Its value is 0.02%.

Q: What about the “content in the brain” value ([4]; 2 min after administration) of the same compound?
A: The value was 99.3 pmol/g brain.

Q: And the “content in the brain based on the dose” value ([4]; 2 min after administration)?
A: Its value is 0.496 % ID/g.

Q: And the “content in the brain” value ([4]; 30 min after administration)?
A: Its value is 3.96 pmol/g brain.

Q: And the “content in the brain based on the dose” value ([4]; 30 min after administration)?
A: Its value is 0.020 % ID/g.

Q: And the “concentration at which fluorescence change occurred” value [5]?
A: Its value is “at the lowest concentration”.
